Here are results for 16 molecules from patent US9656990B2, “Cathepsin cysteine protease inhibitors” (Merck Sharp & Dohme Corp., priority 2014, dated 2017).

The target in one assay is T1, human cathepsin F (Homo sapiens, UniProt Q9UBX1).
T1 sequence (Q9UBX1 271-484): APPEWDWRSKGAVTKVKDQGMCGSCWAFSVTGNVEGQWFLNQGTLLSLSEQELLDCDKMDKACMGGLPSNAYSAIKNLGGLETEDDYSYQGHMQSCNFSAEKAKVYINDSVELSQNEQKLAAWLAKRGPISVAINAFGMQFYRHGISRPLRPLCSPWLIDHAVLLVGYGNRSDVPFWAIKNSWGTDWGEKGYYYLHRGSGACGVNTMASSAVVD
The assay is described as follows: Cathepsin F Assay. Particulars: IP from dose response curve; Z-Phe-Arg-AMC substrate, pH 5.5; read-out: hCat F (IP (nM)). The format is biochemical. The method, boiled down:
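Human cathepsin F (10 nM) preincubated 15 min at room temperature with compounds in 50 mM MES pH 5.5, 2.5 mM EDTA, 2.5 mM DTT, 10% DMSO. Z-Phe-Arg-AMC (8 μM) added; AMC release read by fluorescence (Ex 360/Em 460 nm) over 20 min, inhibition fit to dose-response model.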

Another assay addresses human cathepsin K (UniProt P43236, Y175D/V274L, species not given). The assay is described as follows: Cathepsin K Assay. In kind it is biochemical. Particulars: IP from dose response curve; Z-Leu-Arg-AMC substrate, pH 5.5; read-out: hrbCat K (IP (nM)).

With `C[C@@H](C#N)NC(=O)[C@@H]1CCC(F)(F)C[C@H]1c1nn(-c2ncccc2F)cc1-c1ccc(N2CCS(=O)(=O)CC2)cc1` [Example 34, (1R,2R)-N-((S)-1-cyanoethyl)-2-(4-(4-(1,1-dioxidothiomorpholino)phen-yl)-1-(3-fluoropyridin-2-yl)-1H-pyrazol-3-yl)-4,4-difluorocyclohexanecarbox-amide], the figures for the IC50 at human cathepsin F and on human cathepsin K were 2830 nM and 5.4 nM, respectively.
For `CC(C)[C@@H](C#N)NC(=O)[C@@H]1CCC(F)(F)C[C@H]1c1nn(-c2ncccc2F)cc1-c1ccc(N2CCS(=N)(=O)CC2)cc1` [Example 35, (1R,2R)-N-((S)-1-cyano-2-methylpropyl)-4,4-difluoro-2-(1-(3-fluoropyridin-2-yl)-4-(4-(1-imino-1-oxidothiomorpholino)phenyl)-1H-pyrazol-3-yl)cyclohexanecarboxamide] the same measures were 4890 nM and 9.69 nM.
On to `CN=S1(=O)CCN(c2ccc(-c3cn(-c4ncccc4F)nc3[C@@H]3CC(F)(F)CC[C@H]3C(=O)N[C@H](C#N)C(C)C)cc2)CC1` [Example 36, (1R,2R)-N-((S)-1-cyano-2-methylpropyl)-4,4-difluoro-2-(1-(3-fluoropyridin-2-yl)-4-(4-(1-(methylimino)-1-oxidothiomorpholino)phenyl)-1H-pyrazol-3-yl)cyclohexanecarboxamide], for which the results for the IC50 at human cathepsin F and at human cathepsin K were 8180 nM and 8.79 nM, respectively.
As to `CN=S1(=O)CCN(c2ccc(-c3cn(-c4ccc(F)cn4)nc3[C@@H]3CC[C@H](F)C[C@H]3C(=O)NC3(C#N)CC3)cc2)CC1` [Example 37, (1R,2R,5S)-N-(1-cyanocyclopropyl)-5-fluoro-2-(1-(5-fluoropyridin-2-yl)-4-(4-(1-(methylimino)-1-oxidothiomorpholino)phenyl)-1H-pyrazol-3-yl)cyclohexanecarboxamide], the results for the IC50 at human cathepsin F and on human cathepsin K were 1660 nM and 1.76 nM, respectively.
Taken in the same sequence, the figures for `CN=S1(=O)CCN(c2ccc(-c3cn(-c4ccc(F)cn4)nc3[C@@H]3CC[C@H](F)C[C@H]3C(=O)N[C@@H](C)C#N)cc2)CC1` [Example 38, (1R,2R,5S)-N-((S)-1-cyanoethyl)-5-fluoro-2-(1-(5-fluoropyridin-2-yl)-4-(4-(1-(methylimino)-1-oxidothiomorpholino)phenyl)-1H-pyrazol-3-yl)cyclohexanecarboxamide] were 855 nM and 1.14 nM.
For `Cc1c(-c2ccc(N3CCS(=O)(=O)CC3)cc2)c([C@@H]2CCCC[C@H]2C(=O)NC2(C#N)CC2)nn1-c1ncccc1F` [Example 41, (1R,2R)-N-(1-cyanocyclopropyl)-2-(4-(4-(1,1-dioxidothiomorpholino)phen-yl)-1-(3-fluoropyridin-2-yl)-5-methyl-1H-pyrazol-3-yl)cyclohexanecarboxamide] the same measures were 5390 nM and 8.5 nM.
Taken in the same sequence, the figures for `Cc1c(-c2ccc(N3CCS(=O)(=O)CC3)cc2)c([C@@H]2CCCC[C@H]2C(=O)N[C@@H](C)C#N)nn1-c1ncccc1F` [Example 42, (1R,2R)-N-((S)-1-cyanoethyl)-2-(4-(4-(1,1-dioxidothiomorpholino)phen-yl)-1-(3-fluoropyridin-2-yl)-5-methyl-1H-pyrazol-3-yl)cyclohexanecarboxamide] were 1990 nM and 3.62 nM.
`Cc1c(-c2ccc(N3CCS(=O)(=O)CC3)cc2)c([C@@H]2CCCC[C@H]2C(=O)N[C@H](C#N)C(C)C)nn1-c1ncccc1F` [Example 43, (1R,2R)-N-((S)-1-cyano-2-methylpropyl)-2-(4-(4-(1,1-dioxidothiomorpholino)phen-yl)-1-(3-fluoropyridin-2-yl)-5-methyl-1H-pyrazol-3-yl)cyclohexanecarboxamide]: the values for the IC50 on human cathepsin F and at human cathepsin K were 4550 nM and 12.1 nM, respectively.
`CN=S1(=O)CCN(c2ccc(-c3c([C@@H]4CCCC[C@H]4C(=O)NC4(C#N)CC4)nn(-c4ncccc4F)c3C)cc2)CC1` [Example 44, (1R,2R)-N-(1-cyanocyclopropyl)-2-(1-(3-fluoropyridin-2-yl)-5-methyl-4-(4-(1-(methylimino)-1-oxidothiomorpholino)phenyl)-1H-pyrazol-3-yl)cyclohexanecarboxamide]: the values for the IC50 on human cathepsin F and at human cathepsin K were 8840 nM and 13.9 nM, respectively.
For `C[C@@H](C#N)NC(=O)[C@@H]1CCC(F)(F)C[C@H]1c1nn(-c2ncccc2F)cc1-c1ccc(N2CCS(=N)(=O)CC2)cc1` [Example 45, (1R,2R)-N-((S)-1-cyanoethyl)-4,4-difluoro-2-(1-(3-fluoropyridin-2-yl)-4-(4-(1-imino-1-oxidothiomorpholino)phenyl)-1H-pyrazol-3-yl)cyclohexanecarboxamide] the same measures were 5480 nM and 6.61 nM.
Turning to `CN=S1(=O)CCN(c2ccc(-c3cn(-c4ncccc4F)nc3[C@@H]3CC(F)(F)CC[C@H]3C(=O)N[C@@H](C)C#N)cc2)CC1` [Example 46, (1R,2R)-N-((S)-1-cyanoethyl)-4,4-difluoro-2-(1-(3-fluoropyridin-2-yl)-4-(4-(1-(methylimino)-1-oxidothiomorpholino)phenyl)-1H-pyrazol-3-yl)cyclohexanecarboxamide], the results for the IC50 on human cathepsin F and at human cathepsin K were 6620 nM and 5.78 nM, respectively.
Consider `CN=S1(=O)CCN(c2ccc(-c3c([C@@H]4CCCC[C@H]4C(=O)N[C@@H](C)C#N)nn(-c4ncccc4F)c3C)cc2)CC1` [Example 47, (1R,2R)-N-((S)-1-cyanoethyl)-2-(1-(3-fluoropyridin-2-yl)-5-methyl-4-(4-(1-(methylimino)-1-oxidothiomorpholino)phenyl)-1H-pyrazol-3-yl)cyclohexanecarboxamide], for which the IC50 on human cathepsin F came to 3240 nM; on human cathepsin K it was 5.48 nM.
Regarding `CN=S1(=O)CCN(c2ccc(-c3c([C@@H]4CCCC[C@H]4C(=O)N[C@H](C#N)C(C)C)nn(-c4ncccc4F)c3C)cc2)CC1` [Example 48, (1R,2R)-N-((S)-1-cyano-2-methylpropyl)-2-(1-(3-fluoropyridin-2-yl)-5-methyl-4-(4-(1-(methylimino)-1-oxidothiomorpholino)phenyl)-1H-pyrazol-3-yl)cyclohexanecarboxamide], the IC50 on human cathepsin F came to 7350 nM; on human cathepsin K it was 19.2 nM.
For `Cc1c(-c2ccc(N3CCS(=N)(=O)CC3)cc2)c([C@@H]2CCCC[C@H]2C(=O)NC2(C#N)CC2)nn1-c1ncccc1F` [Example 50, (1R,2R)-N-(1-cyanocyclopropyl)-2-(1-(3-fluoropyridin-2-yl)-4-(4-(1-imino-1-oxidothiomorpholino)phenyl)-5-methyl-1H-pyrazol-3-yl)cyclohexanecarboxamide] the same measures were 7790 nM and 14 nM.
Taken in the same sequence, the figures for `Cc1c(-c2ccc(N3CCS(=N)(=O)CC3)cc2)c([C@@H]2CCCC[C@H]2C(=O)N[C@@H](C)C#N)nn1-c1ncccc1F` [Example 51, (1R,2R)-N-((S)-1-cyanoethyl)-2-(1-(3-fluoropyridin-2-yl)-4-(4-(1-imino-1-oxidothiomorpholino)phenyl)-5-methyl-1H-pyrazol-3-yl)cyclohexanecarboxamide] were 3870 nM and 7.41 nM.
Consider `Cc1c(-c2ccc(N3CCS(=N)(=O)CC3)cc2)c([C@@H]2CCCC[C@H]2C(=O)N[C@H](C#N)C(C)C)nn1-c1ncccc1F` [Example 52, (1R,2R)-N-((S)-1-cyano-2-methylpropyl)-2-(1-(3-fluoropyridin-2-yl)-4-(4-(1-imino-1-oxidothiomorpholino)phenyl)-5-methyl-1H-pyrazol-3-yl)cyclohexanecarboxamide], for which the IC50 at human cathepsin F was 9320 nM; on human cathepsin K, 22.5 nM.
